Several values for one entry are separate records, joined by “and”; a condition that tells them apart may be missing. Equal values may be shown once. Inconclusive results and toxic doses are left out. The calls were made as follows: active = survival T/C of 150% or more; inactive = T/C below 125% in these data.
Tested on: CD2F1 mice, L1210 leukemia ip, survival T/C
Assay: NCI In Vivo Anticancer Drug Screen. Data for tumor model L1210 Leukemia (intraperitoneal) in CD2F1 (CDF1) mice
Settings: endpoint: mean survival time, higher = longer survival
Outline: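 Implant tumor; dose compound or vehicle; measure endpoint in both groups; report treated divided by control.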

[1] = dose: 100.0 mg/kg/injection, schedule: Q04DX003 (ip), vehicle: saline with Tween-80
[2] = dose: 200.0 mg/kg/injection, schedule: Q04DX003 (ip), vehicle: saline with Tween-80
[3] = dose: 400.0 mg/kg/injection, schedule: Q04DX003 (ip), vehicle: saline with Tween-80
[4] = dose: 100.0 mg/kg/injection, schedule: Q01DX001 (ip), vehicle: saline with Tween-80
[5] = dose: 100.0 mg/kg/injection, schedule: Q04DX002 (ip), vehicle: saline with Tween-80
[6] = dose: 200.0 mg/kg/injection, schedule: Q01DX001 (ip), vehicle: saline with Tween-80
[7] = dose: 200.0 mg/kg/injection, schedule: Q04DX002 (ip), vehicle: saline with Tween-80

Measured: T/C

O=C(O)c1c(F)c(F)c(F)c(C(=O)O)c1F
inactive: dose: 12.5 mg/kg/injection, schedule: Q01DX009 (ip), vehicle: saline 89 % of control | dose: 25.0 mg/kg/injection, schedule: Q01DX009 (ip), vehicle: saline 95 % of control | dose: 25.0 mg/kg/injection, schedule: Q04DX003 (ip), vehicle: saline 89 % of control | dose: 50.0 mg/kg/injection, schedule: Q01DX009 (ip), vehicle: saline 95 % of control | dose: 50.0 mg/kg/injection, schedule: Q04DX003 (ip), vehicle: saline 88 % of control | [1] 93 % of control

CC(=O)N1CCCCC1C/C(C)=N/O (stereo unspecified)
inactive: [1] 105 % of control | [2] 95 % of control | [3] 109 % of control

Cc1ccc(NC(=O)OCCSC(=O)COc2ccc(Cl)cc2Cl)cc1
inactive: [1] 98 % of control | [2] 98 % of control | [3] 93 % of control

O=C(N/N=C/c1ccccc1O)c1ccccc1
inactive: dose: 100.0 mg/kg/injection, schedule: Q01DX001 (ip), vehicle: Klucel (hydroxypropylcellulose) (HPC) 112 % of control | dose: 100.0 mg/kg/injection, schedule: Q01DX009 (ip), vehicle: Klucel (hydroxypropylcellulose) (HPC) 94 % of control | dose: 200.0 mg/kg/injection, schedule: Q01DX001 (ip), vehicle: Klucel (hydroxypropylcellulose) (HPC) 105 % of control | dose: 200.0 mg/kg/injection, schedule: Q01DX009 (ip), vehicle: Klucel (hydroxypropylcellulose) (HPC) 104 % of control | dose: 400.0 mg/kg/injection, schedule: Q01DX001 (ip), vehicle: Klucel (hydroxypropylcellulose) (HPC) 95 % of control | dose: 400.0 mg/kg/injection, schedule: Q01DX009 (ip), vehicle: Klucel (hydroxypropylcellulose) (HPC) 102 % of control

O=c1[nH]c2c([N+](=O)[O-])cc(Br)cc2c2ccccc12
inactive: dose: 100.0 mg/kg/injection, schedule: Q01DX001 (ip), vehicle: carboxymethylcellulose (CMC) 100 % of control | dose: 200.0 mg/kg/injection, schedule: Q01DX001 (ip), vehicle: carboxymethylcellulose (CMC) 94 % of control | dose: 400.0 mg/kg/injection, schedule: Q01DX001 (ip), vehicle: carboxymethylcellulose (CMC) 100 % of control

FC(F)(F)c1nn[nH]n1
inactive: dose: 100.0 mg/kg/injection, schedule: Q01DX009 (ip), vehicle: saline 100 % of control | dose: 200.0 mg/kg/injection, schedule: Q01DX009 (ip), vehicle: saline 104 % of control | dose: 400.0 mg/kg/injection, schedule: Q01DX009 (ip), vehicle: saline 98 % of control

Oc1ccccc1C=NCC1CCCC[N-]1.Oc1ccccc1C=NCC1CCCC[N-]1.[Ni+2] (stereo unspecified)
inactive: dose: 25.0 mg/kg/injection, schedule: Q04DX002 (ip), vehicle: saline with Tween-80 101 % of control | dose: 50.0 mg/kg/injection, schedule: Q04DX002 (ip), vehicle: saline with Tween-80 98 % of control | [4] 96 % of control | [5] 96 % of control | dose: 132.0 mg/kg/injection, schedule: Q01DX001 (ip), vehicle: saline with Tween-80 101 % of control | [6] 102 % of control | [7] 101 % of control | dose: 300.0 mg/kg/injection, schedule: Q01DX001 (ip), vehicle: saline with Tween-80 107 % of control

Nc1nc2c(ncn2-c2ccc(-c3ccccc3)cc2)c(=O)[nH]1
inactive: [4] 93 % of control and 108 % of control | [5] 97 % of control | [6] 87 % of control and 89 % of control | [7] 93 % of control | dose: 400.0 mg/kg/injection, schedule: Q01DX001 (ip), vehicle: saline with Tween-80 93 % of control | dose: 400.0 mg/kg/injection, schedule: Q04DX002 (ip), vehicle: saline with Tween-80 89 % of control

CC(CCCOS(C)(=O)=O)OS(C)(=O)=O (stereo unspecified)
inactive: dose: 25.0 mg/kg/injection, schedule: Q04DX002 (ip), vehicle: Klucel (hydroxypropylcellulose) (HPC) 105 % of control | dose: 50.0 mg/kg/injection, schedule: Q04DX002 (ip), vehicle: Klucel (hydroxypropylcellulose) (HPC) 108 % of control | dose: 100.0 mg/kg/injection, schedule: Q04DX002 (ip), vehicle: Klucel (hydroxypropylcellulose) (HPC) 94 % of control

CN(C)NC(=O)CC(N)C(=O)O (stereo unspecified)
inactive: [1] 101 % of control | [2] 101 % of control | [3] 102 % of control

CC(=O)Nc1ccc(N=NN(C)C)cc1
inactive: dose: 4.68 mg/kg/injection, schedule: Q01DX009 (ip), vehicle: Klucel (hydroxypropylcellulose) (HPC) 106 % of control and 109 % of control | dose: 9.37 mg/kg/injection, schedule: Q01DX009 (ip), vehicle: Klucel (hydroxypropylcellulose) (HPC) 114 % of control and 116 % of control
